Assay results as given in patent US20260053716A1, “COMPOSITION FOR DENTIN ADHESION AND COMPOSITION FOR PULP RESTORATION, EACH COMPOSITION CONTAINING CPNE7-DERIVED PEPTIDE” (HYSENSBIO CO., LTD, priority 2022, published 2026).
Ends that are not written are not given here.

Experiment: Observation of dentinal tubule permeability by confocal microscopy
Type: in vitro ADME
Conditions: rhodamine-attached KH001 in ABU, applied about 30 seconds to coronal surface of extracted human tooth
Text: The composition for dentin adhesion prepared according to Example 2-1-1 of the present invention was applied to extracted human teeth to observe dentinal tubule permeability. The extracted human teeth were impacted human third molars from patients aged 18 to 22, provided by the Seoul National University Dental Hospital. The experimental protocol was approved by the Institutional Review Board (IRB; IRB Number: S-D20140007), and prior consent was obtained from all patients.
The crown of the extracted human tooth was transversely cut using a diamond saw to expose the dentinal tubule, and then the exposed human tooth was treated. A composition for dentin adhesion prepared according to Example 2-1-1 containing the KH001 peptide (SEQ ID NO: 96), to which rhodamine was attached as a fluorescent dye, was applied to the coronal surface of the extracted human tooth.
The composition for dentin adhesion was applied without a brushing process or an air-drying process and left for about 30 seconds for photopolymerization, and then confocal images were taken.

## KYKQKRRSYK [KH001, KYKQKRRSYK]
  dentinal tubule permeability (whether KH001 reached the pulp): flowed well into the pulp cavity along the dentinal tubule
